In brackets after ≈: the same amount, converted by molar mass.
What was measured:
A. baumannii PBP2 = A. baumannii PBP2 (Acinetobacter baumannii, UniProt D0C8Z9); assay: Bocillin-FL competition binding via gel filtration, A. baumannii PBP2
Procedure, shortened: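 Competitive equilibrium binding; reporter Bocillin-FL. PBP + inhibitor (titration) pre-incubated → Bocillin-FL, 15 min → gel filtration → fluorescence. EC50 from Hill fit of fraction bound vs [inhibitor].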

A. baumannii 1258916 = assay: microbe, parasite or virus in culture; type: cell-based, Acinetobacter baumannii; details: Acinetobacter baumannii, 1258916, read-out: MIC, A. baumannii 1258916
[1] = system: B. humptydooensis ATCC BAA-2767; assay: microbe, parasite or virus in culture; type: cell-based; details: Burkholderia humptydooensis, ATCCBAA2767, read-out: Minimum inhibitory concentration (MIC), B. humptydooensis ATCC BAA-2767
P. aeruginosa CDC-0095 = assay: microbe, parasite or virus in culture; type: cell-based; details: Pseudomonas aeruginosa, CDC0095, read-out: Minimum inhibitory concentration, P. aeruginosa CDC-0095
A. baumannii ATCC 19606 = assay: microbe, parasite or virus in culture; type: cell-based; details: Acinetobacter baumannii, ATCC19606, read-out: MIC, A. baumannii ATCC 19606
A. baumannii CDC-0033 = assay: microbe, parasite or virus in culture; type: cell-based; details: Acinetobacter baumannii, CDC0033, read-out: MIC, A. baumannii CDC-0033
A. baumannii CDC-0036 = assay: microbe, parasite or virus in culture; type: cell-based; details: Acinetobacter baumannii, CDC0036, read-out: MIC, A. baumannii CDC-0036
P. aeruginosa ATCC 35151 = assay: microbe, parasite or virus in culture; type: cell-based; details: Pseudomonas aeruginosa, ATCC35151, read-out: Minimum inhibitory concentration, P. aeruginosa ATCC 35151
[2] = target: T1, PBP3 from Pseudomonas aeruginosa (PAO1) (Pseudomonas aeruginosa, UniProt G3XD46); assay: Bocillin-FL fluorescence polarization competition binding, P. aeruginosa PBP3; details: Binding affinity to P. aeruginosa PBP3; fluorescence polarization competition binding assay using Bocillin-FL; read-out: P. aeruginosa PBP3 Potency
T1 construct: made in house
Procedure, shortened: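 Purified PBP was preincubated with inhibitor (E. coli PBP3 1.5 μM, 30 min; P. aeruginosa PBP3 0.75 μM, A. baumannii PBP3 0.2 μM and PBP1a 1 μM, 15 min), then Bocillin-FL (0.1 μM; 0.05 μM for PBP1a) added and FP read up to 60 min. EC50 = 50% loss of bound probe.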

A. baumannii CDC-0045 = assay: microbe, parasite or virus in culture; type: cell-based; details: Acinetobacter baumannii, CDC0045, read-out: MIC, A. baumannii CDC-0045
[3] = system: B. thailandensis ATCC 700388; assay: microbe, parasite or virus in culture; type: cell-based; details: Burkholderia thailandensis, ATCC700388, read-out: Minimum inhibitory concentration (MIC), B. thailandensis ATCC 700388
A. baumannii ATCC 17978 = assay: microbe, parasite or virus in culture; type: cell-based; details: Acinetobacter baumannii, ATCC17978, read-out: MIC, A. baumannii ATCC 17978

T1 sequence (G3XD46 whole entry): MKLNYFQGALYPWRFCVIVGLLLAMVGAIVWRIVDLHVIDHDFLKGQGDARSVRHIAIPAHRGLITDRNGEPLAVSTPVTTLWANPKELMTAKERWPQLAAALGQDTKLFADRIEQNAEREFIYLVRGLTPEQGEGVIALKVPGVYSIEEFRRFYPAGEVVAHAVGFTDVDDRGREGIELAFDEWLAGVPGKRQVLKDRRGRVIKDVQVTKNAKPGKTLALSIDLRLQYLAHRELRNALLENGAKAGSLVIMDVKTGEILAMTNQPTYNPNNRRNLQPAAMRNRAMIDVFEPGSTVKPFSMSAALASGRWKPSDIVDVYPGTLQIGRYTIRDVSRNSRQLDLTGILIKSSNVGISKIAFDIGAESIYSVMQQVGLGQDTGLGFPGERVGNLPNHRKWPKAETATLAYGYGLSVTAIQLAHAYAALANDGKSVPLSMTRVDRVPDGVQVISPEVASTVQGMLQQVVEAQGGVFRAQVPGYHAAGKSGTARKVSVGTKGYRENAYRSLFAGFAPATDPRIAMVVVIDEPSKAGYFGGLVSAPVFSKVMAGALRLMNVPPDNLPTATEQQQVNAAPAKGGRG
A. baumannii PBP2, sequence (D0C8Z9 whole entry): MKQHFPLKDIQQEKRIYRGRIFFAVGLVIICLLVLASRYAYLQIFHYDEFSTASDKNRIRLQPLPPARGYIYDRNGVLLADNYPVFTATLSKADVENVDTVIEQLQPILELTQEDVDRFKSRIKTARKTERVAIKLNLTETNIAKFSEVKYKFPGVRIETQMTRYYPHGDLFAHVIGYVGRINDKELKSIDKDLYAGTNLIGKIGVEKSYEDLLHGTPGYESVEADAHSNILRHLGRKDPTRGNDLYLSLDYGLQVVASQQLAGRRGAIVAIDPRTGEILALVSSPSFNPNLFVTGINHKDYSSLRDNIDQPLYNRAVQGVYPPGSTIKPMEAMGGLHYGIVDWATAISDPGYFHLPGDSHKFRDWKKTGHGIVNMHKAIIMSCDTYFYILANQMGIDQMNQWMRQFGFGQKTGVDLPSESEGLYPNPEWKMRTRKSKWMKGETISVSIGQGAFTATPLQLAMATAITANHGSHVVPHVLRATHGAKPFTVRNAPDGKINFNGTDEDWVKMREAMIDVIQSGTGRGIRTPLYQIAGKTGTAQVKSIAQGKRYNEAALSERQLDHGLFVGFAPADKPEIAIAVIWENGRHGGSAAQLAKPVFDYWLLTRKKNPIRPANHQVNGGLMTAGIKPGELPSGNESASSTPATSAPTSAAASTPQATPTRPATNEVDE

SMILES | EC50 (A. baumannii PBP2) [µM] | MIC (A. baumannii 1258916) [µg/mL] | MIC [1] [µg/mL] | MIC (P. aeruginosa CDC-0095) [µg/mL] | MIC (A. baumannii ATCC 19606) [µg/mL] | MIC (A. baumannii CDC-0033) [µg/mL] | MIC (A. baumannii CDC-0036) [µg/mL] | MIC (P. aeruginosa ATCC 35151) [µg/mL] | IC50 [2] [µM] | MIC (A. baumannii CDC-0045) [µg/mL] | MIC [3] [µg/mL] | MIC (A. baumannii ATCC 17978) [µg/mL]
O=C(O)c1c(F)ccc2c1OB(O)[C@@H](NC(=O)C(NC(=O)N1CCN(CC3CCN(C(=O)Nc4cccc(O)c4)CC3)C(=O)C1=O)c1cc(F)c(O)c(O)c1Cl)C2 (stereo partly drawn) [Example 477, (3R)-3-(2-(2-chloro-5-fluoro-3,4-dihydroxyphenyl)-2-(4-((1-((3-hydroxyphenyl)carbamoyl)piperidin-4-yl)methyl)-2,3-dioxopiperazine-1-carboxamido)acetamido)-7-fluoro-2-hydroxy-3,4-dihydro-2H-benzo[e][1,2]oxaborinine-8-carboxylic acid] | < 10 | < 1 | < 1 | < 1 | < 1 | 2 to 4 (≈ 2.45 to 4.91 µM) | 2 to 4 (≈ 2.45 to 4.91 µM) | < 1 | < 10 | < 1 | < 1 | < 1
O=C(O)c1cccc2c1OB(O)[C@@H](NC(=O)C(NC(=O)N1CCN(CC(F)(F)F)C(=O)C1=O)c1ccc(P(=O)(O)O)cc1)C2 (stereo partly drawn) [Example 4, (3R)-3-(2-(2,3-dioxo-4-(2,2,2-trifluoroethyl)piperazine-1-carboxamido)-2-(4-phosphonophenyl)acetamido)-2-hydroxy-3,4-dihydro-2H-benzo[e][1,2]oxaborinine-8-carboxylic acid] | – | – | – | – | – | – | – | – | < 10 | – | – | –
O=C(O)c1c(F)ccc2c1OB(O)[C@@H](NC(=O)C(NC(=O)N1CCN(CC3CCN(C(=O)c4cccc(O)c4)CC3)C(=O)C1=O)c1cc(F)c(O)c(O)c1Cl)C2 (stereo partly drawn) [Example 475, (3R)-3-(2-(2-chloro-5-fluoro-3,4-dihydroxyphenyl)-2-(4-((1-(3-hydroxybenzoyl)piperidin-4-yl)methyl)-2,3-dioxopiperazine-1-carboxamido)acetamido)-7-fluoro-2-hydroxy-3,4-dihydro-2H-benzo[e][1,2]oxaborinine-8-carboxylic acid] | < 10 | < 1 | 2 to 4 (≈ 2.5 to 5 µM) | < 1 | < 1 | 2 to 4 (≈ 2.5 to 5 µM) | 2 to 4 (≈ 2.5 to 5 µM) | < 1 | < 10 | < 1 | < 1 | < 1
O=C(O)c1c(F)ccc2c1OB(O)[C@@H](NC(=O)C(NC(=O)N1CCN(C3CCN(C(=O)c4ccc(O)cc4O)CC3)C(=O)C1=O)c1cc(F)c(O)c(O)c1Cl)C2 (stereo partly drawn) [Example 476, (3R)-3-(2-(2-chloro-5-fluoro-3,4-dihydroxyphenyl)-2-(4-(1-(2,4-dihydroxybenzoyl)piperidin-4-yl)-2,3-dioxopiperazine-1-carboxamido)acetamido)-7-fluoro-2-hydroxy-3,4-dihydro-2H-benzo[e][1,2]oxaborinine-8-carboxylic acid] | < 10 | < 1 | < 1 | < 1 | < 1 | < 1 | < 1 | < 1 | < 10 | < 1 | < 1 | < 1
O=C(O)c1c(F)ccc2c1OB(O)[C@@H](NC(=O)[C@H](NC(=O)N1CCN(C3CCN(C(=O)Nc4ccc(O)cc4)CC3)C1=O)c1cc(F)c(O)c(O)c1Cl)C2 (single isomer, unassigned) [Example 468] | < 10 | < 1 | < 1 | < 1 | < 1 | < 1 | < 1 | < 1 | < 10 | < 1 | < 1 | < 1
O=C(O)c1c(F)ccc2c1OB(O)[C@@H](NC(=O)C(NC(=O)N1CCN(C3CCN(C(=O)c4ccc(O)cc4)CC3)C(=O)C1=O)c1cc(F)c(O)c(O)c1Cl)C2 (stereo partly drawn) [Example 427, (3R)-3-(2-(2-chloro-5-fluoro-3,4-dihydroxyphenyl)-2-(4-(1-(4-hydroxybenzoyl)piperidin-4-yl)-2,3-dioxopiperazine-1-carboxamido)acetamido)-7-fluoro-2-hydroxy-3,4-dihydro-2H-benzo[e][1,2]oxaborinine-8-carboxylic acid] | < 10 | < 1 | < 1 | 2 to 4 (≈ 2.54 to 5.09 µM) | < 1 | 2 to 4 (≈ 2.54 to 5.09 µM) | < 1 | < 1 | < 10 | < 1 | < 1 | < 1
O=C(O)c1c(F)ccc2c1OB(O)[C@@H](NC(=O)C(NC(=O)N1CCN(C3CCN(C(=O)Nc4cccc(O)c4F)CC3)C(=O)C1=O)c1cc(F)c(O)c(O)c1Cl)C2 (stereo partly drawn) [Example 478, (3R)-3-(2-(2-chloro-5-fluoro-3,4-dihydroxyphenyl)-2-(4-(1-((2-fluoro-3-hydroxyphenyl)carbamoyl)piperidin-4-yl)-2,3-dioxopiperazine-1-carboxamido)acetamido)-7-fluoro-2-hydroxy-3,4-dihydro-2H-benzo[e][1,2]oxaborinine-8-carboxylic acid] | 10 to 50 | < 1 | 8 to 16 (≈ 9.77 to 19.5 µM) | 2 to 4 (≈ 2.44 to 4.88 µM) | < 1 | 8 to 16 (≈ 9.77 to 19.5 µM) | 2 to 4 (≈ 2.44 to 4.88 µM) | < 1 | < 10 | < 1 | 2 to 4 (≈ 2.44 to 4.88 µM) | < 1
CCN1CCN(C(=O)NC(C(=O)N[C@H]2Cc3cccc(C(=O)O)c3OB2O)c2cc(P(=O)(O)O)ccc2F)C(=O)C1=O (stereo partly drawn) [Example 2, (3R)-3-(2-(4-ethyl-2,3-dioxopiperazine-1-carboxamido)-2-(2-fluoro-5-phosphonophenyl)acetamido)-2-hydroxy-3,4-dihydro-2H-benzo[e][1,2]oxaborinine-8-carboxylic acid] | – | – | – | – | – | – | – | – | < 10 | – | – | –
O=C(O)c1c(F)ccc2c1OB(O)[C@@H](NC(=O)C(NC(=O)N1CCN(C3CCN(C(=O)Cc4cccc(O)c4)CC3)C(=O)C1=O)c1cc(F)c(O)c(O)c1Cl)C2 (stereo partly drawn) [Example 474, (3R)-3-(2-(2-chloro-5-fluoro-3,4-dihydroxyphenyl)-2-(4-(1-(2-(3-hydroxyphenyl)acetyl)piperidin-4-yl)-2,3-dioxopiperazine-1-carboxamido)acetamido)-7-fluoro-2-hydroxy-3,4-dihydro-2H-benzo[e][1,2]oxaborinine-8-carboxylic acid] | < 10 | < 1 | < 1 | 2 to 4 (≈ 2.5 to 5 µM) | < 1 | < 1 | < 1 | < 1 | < 10 | < 1 | 2 to 4 (≈ 2.5 to 5 µM) | < 1
CCN1CCN(C(=O)NC(C(=O)N[C@H]2Cc3cccc(C(=O)O)c3OB2O)c2ccc(P(=O)(O)O)cc2F)C(=O)C1=O (stereo partly drawn) [Example 1, (3R)-3-(2-(4-ethyl-2,3-dioxopiperazine-1-carboxamido)-2-(2-fluoro-4-phosphonophenyl)acetamido)-2-hydroxy-3,4-dihydro-2H-benzo[e][1,2]oxaborinine-8-carboxylic acid] | – | – | – | – | – | – | – | – | < 10 | – | – | –
CS(=O)(=O)N1CCN(C(=O)N[C@H](C(=O)N[C@H]2Cc3cccc(C(=O)O)c3OB2O)c2ccc(P(=O)(O)O)cc2)C1=O (single isomer, unassigned) [Example 5] | – | – | – | – | – | – | – | – | 10 to 50 | – | – | –
O=C(O)c1c(F)ccc2c1OB(O)[C@@H](NC(=O)[C@@H](NC(=O)N1CCN(C3CCN(C(=O)Nc4ccc(O)cc4)CC3)C1=O)c1cc(F)c(O)c(O)c1Cl)C2 (single isomer, unassigned) [Example 467] | – | < 1 | 2 to 4 (≈ 2.59 to 5.18 µM) | < 1 | < 1 | < 1 | < 1 | < 1 | < 10 | < 1 | < 1 | < 1
NCCN1CCN(C(=O)NC(C(=O)N[C@H]2Cc3cccc(C(=O)O)c3OB2O)c2ccc(P(=O)(O)O)cc2)C(=O)C1=O (stereo partly drawn) [Example 3, (3R)-3-(2-(4-(2-aminoethyl)-2,3-dioxopiperazine-1-carboxamido)-2-(4-phosphonophenyl)acetamido)-2-hydroxy-3,4-dihydro-2H-benzo[e][1,2]oxaborinine-8-carboxylic acid] | – | – | – | – | – | – | – | – | 10 to 50 | – | – | –

Reference: US20240270762A1, “PENICILLIN-BINDING PROTEIN INHIBITORS” (priority 2021, published 2024)
